# Patent US20080096894A1, “Anti-Bacterial Compounds” (ASTON UNIVERSITY, priority 2005, published 2008)
# How the values were obtained:
# Assay in all cases: MIC, agar dilution, multipoint inoculator
# E. faecalis = format: cell-based; settings: upper value of MIC reading
# How it was run: (§1)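 Read-out is the MIC by agar dilution. Plates contain Mueller Hinton agar; bacteria are applied via multipoint inoculator, 10^4 CFU per spot.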
# B. bronchiseptica = format: cell-based; settings: B. bronchiseptica NCTC 8344; upper value of MIC reading
# How it was run: as §1
# S. maltophilia = format: cell-based; settings: S. maltophilia NCTC 10257; upper value of MIC reading
# How it was run: as §1
# S. haemolyticus = format: cell-based; settings: S. haemolyticus Isolate 1; upper value of MIC reading
# How it was run: as §1
# S. aboni = format: cell-based; settings: S. aboni NCTC 6017; upper value of MIC reading
# How it was run: as §1
# P. auriginosa = format: cell-based, Pseudomonas aeruginosa; settings: P. auriginosa NCTC 6749; upper value of MIC reading
# Method: (§2) This activity was measured using a multipoint inoculator method as follows. The MIC for each compound was measured using an agar dilution method (Onda, H., et al., Int. J. Antimicrob. Agents. 18, 263 (2001)) (Mueller Hinton agar) by means of a multipoint inoculator delivering 10^4 colony forming units per spot.
# K. pneumoniae = format: cell-based, Klebsiella pneumoniae; settings: K. pneumoniae 327; upper value of MIC reading
# Method: as §2
# E. cloacae = format: cell-based, Enterobacter cloacae; settings: E. cloacae NCTC 11582; upper value of MIC reading
# Method: as §2
# MRSA = format: cell-based, methicillin-resistant Staphylococcus aureus; settings: for MIC: upper value of MIC reading, in µg/mL; for MRSA MIC range: panel of ten MRSA strains (clinical isolates)
# How it was run: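 Agar dilution MIC on Mueller Hinton agar, multipoint inoculator delivering 10^4 colony forming units per spot. MRSA values are ranges across ten clinical MRSA strains; S. aureus NCTC 6571 as reference strain.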
# S. epidemisis = format: cell-based, Staphylococcus epidermidis; settings: upper value of MIC reading
# How it was run: as §1
# S. marcesens = format: cell-based, Serratia marcescens; settings: S. marcesens 4444; upper value of MIC reading
# Method: as §2
# S. aureus = format: cell-based, Staphylococcus aureus; settings: upper value of MIC reading
# How it was run: as §1
# E. faecium = format: cell-based, Enterococcus faecium; settings: upper value of MIC reading
# How it was run: as §1
SMILES,MIC (E. faecalis; E. faecalis EBH1) [mg/L],MIC (E. faecalis; E. faecalis Isolate 1) [mg/L],MIC (E. faecalis; E. faecalis Isolate 2) [mg/L],MIC (E. faecalis; E. faecalis Isolate 3) [mg/L],MIC (E. faecalis; E. faecalis Isolate 4) [mg/L],MIC (E. faecalis; E. faecalis Isolate 5) [mg/L],MIC (E. faecalis; E. faecalis NCTC 5957) [mg/L],MIC (S. maltophilia) [mg/L],MIC (S. haemolyticus) [mg/L],MIC (S. aboni) [mg/L],MIC (P. auriginosa) [mg/L],MIC (K. pneumoniae) [mg/L],MIC (E. cloacae) [mg/L],MIC (MRSA; MRSA Isolate 1),MIC (MRSA; MRSA Isolate 2),MIC (MRSA; MRSA Isolate 3),MIC (MRSA; MRSA Isolate 4),MIC (MRSA; MRSA Isolate 5),MIC (MRSA; MRSA Isolate 6),MIC (MRSA; MRSA Isolate 7),other results
Oc1cc(O)c(C=NNc2ccccn2)c(O)c1 [HDcd],256,128,128,128,256,128,256,128,128,128,256,256,256,256,256,256,256,256,256,256,MIC (B. bronchiseptica): 256 mg/L; MIC (MRSA; MRSA Isolate 8): 256; MIC (MRSA; MRSA Isolate 9): 256; MIC (MRSA; MRSA Isolate 10): 256; MRSA MIC range (MRSA): 128 to 256 mg/L; MIC (S. epidemisis; S. epidemisis Isolate 1): 128 mg/L; MIC (S. epidemisis; S. epidemisis NCTC 11047): 128 mg/L; MIC (S. marcesens): 256 mg/L; MIC (S. aureus; S. aureus Cowan 1): 256 mg/L; MIC (S. aureus; S. aureus NCTC 6571): 256 mg/L; MIC (S. aureus; S. aureus NCTC 10788): 256 mg/L; MIC (E. faecium; E. faecium ACTCC 10541): 256 mg/L; MIC (E. faecium; E. faecium NCTC 7171): 256 mg/L
O=[N+]([O-])c1cc(Br)cc(C=NNc2ccccn2)c1O [HDcl],128,128,32,16,128,128,128,128,128,128,128,128,256,128,128,128,128,128,128,128,MIC (B. bronchiseptica): 128 mg/L; MIC (MRSA; MRSA Isolate 8): 128; MIC (MRSA; MRSA Isolate 9): 128; MIC (MRSA; MRSA Isolate 10): 128; MRSA MIC range (MRSA): 64 to 128 mg/L; MIC (S. epidemisis; S. epidemisis Isolate 1): 128 mg/L; MIC (S. epidemisis; S. epidemisis NCTC 11047): 64 mg/L; MIC (S. marcesens): 256 mg/L; MIC (S. aureus; S. aureus Cowan 1): 128 mg/L; MIC (S. aureus; S. aureus NCTC 6571): 128 mg/L; MIC (S. aureus; S. aureus NCTC 10788): 128 mg/L; MIC (E. faecium; E. faecium ACTCC 10541): 128 mg/L; MIC (E. faecium; E. faecium NCTC 7171): 128 mg/L
NC(=NN=Cc1ccc(O)c(O)c1)c1ccc2ccccc2n1 [QNca],256,256,256,256,256,256,256,256,128,256,256,256,32,128,128,128,128,128,128,128,MIC (MRSA; MRSA Isolate 8): 128; MIC (MRSA; MRSA Isolate 9): 128; MIC (MRSA; MRSA Isolate 10): 128; MRSA MIC range (MRSA): 64 to 128 mg/L; MIC (S. epidemisis; S. epidemisis Isolate 1): 64 mg/L; MIC (S. epidemisis; S. epidemisis NCTC 11047): 64 mg/L; MIC (S. marcesens): 256 mg/L; MIC (S. aureus; S. aureus Cowan 1): 128 mg/L; MIC (S. aureus; S. aureus NCTC 6571): 128 mg/L; MIC (S. aureus; S. aureus NCTC 10788): 128 mg/L; MIC (E. faecium; E. faecium ACTCC 10541): 256 mg/L; MIC (E. faecium; E. faecium NCTC 7171): 256 mg/L
